Results on four compounds are retold here after PMC6952396, “Structural basis for itraconazole-mediated NPC1 inhibition” (Nature Communications, 2020).

The subject of one experiment is T1, human NPC1.
T1 construct: Strep-tag; made in house; host or cells: HEK-293S GnTI- cells (baculovirus-mediated transduction)
The experiment is described as follows: P-X cross-linking to purified NPC1. In kind it is binding. The following applies: for competition with cross-linking of P-X to purified NPC1: 0.3 μM P-X, amphipol-reconstituted NPC1 without detergent, in-gel fluorescence. As for the experimental part:
To determine the binding site for itraconazole on NPC1, we expressed and purified the NPC1 protein using n-dodecyl β-D-maltoside (DDM) as the detergent. The protein was then incorporated into amphipol A8-35 and the detergent was removed with bio-beads and further separated by gel filtration in phosphate buffered saline (PBS).
For Cross-Linking of P-X to purified NPC1 protein, each reaction contained 0.5 μg of indicated protein, 0.3 μM P-X, and various amounts of itraconazole in a final volume of 100 μL of buffer containing 50 mM Hepes pH7.5 and 150 mM NaCl with or without 0.1% Digitonin (Calbiochem). After incubation for 1 h at 37 °C, the mixture was subjected to UV cross-linking for 10 min and then tagged with Alexa Fluor 532 by means of copper-catalyzed azide-alkyne cycloaddition (click chemistry)[22],[41]. The reactions were carried out by mixing an aliquot of each mixture (50 μL), in a final volume of 58.5 μL, with 3 μL of 1.7 mM Tris[(1-benzyl-1H-1,2,3-triazol-4-yl) methyl] amine (TBTA), 2 μL of 50 mM CuSO4, 1 μL of 50 mM Tris(2-carboxyethyl) phosphine (TCEP), 1.5 μL 10% SDS and 1 μL of 1.25 mM Alexa Fluor 532 azide. The mixture was incubated at room temperature for 1 h.
To visualize the fluorescent-labeled proteins by in-gel fluorescence, 20 μL. aliquots of each sample were mixed with 4x loading dye and subjected to 8% SDS/PAGE, after which the gels were scanned with a Typhoon image scanner (GE Healthcare; filter setting: excitation, […]; emission, 555 nm; high sensitivity). After scanning the gel, the proteins were transferred to nitrocellulose and blotted with rabbit monoclonal anti-NPC1 as indicated in the figure legends.
Human NPC1 protein was expressed and purified as previously described, except for using Strep-tag instead of His-tag. Briefly, the protein was expressed using baculovirus-mediated transduction of mammalian HEK-293S GnTI^− cells (ATCC, CRL-3022). At 48 h post infection, the cells were disrupted by sonication in buffer B, containing 20 mM Hepes, pH7.5, 150 mM NaCl with 1 mM PMSF and 5 μg/mL leupeptin. After low speed centrifugation, the resulting supernatant was incubated in buffer B with 1% (w/v) DDM for 1 h at 4 °C. The lysate was centrifuged again, and the supernatant was loaded onto a Strep-Tactin affinity column (IBA). After washing twice, the protein was eluted in 20 mM Hepes, pH7.5, 150 mM NaCl, 2.5 mM desthiobiotin, 0.02% DDM and concentrated. The concentrated protein was further purified by Superdex 200 increase column (GE Healthcare) in buffer B with 0.02% DDM. The peak fractions were mixed with amphipol A8-35 (Anatrace) at 1:3 (w/w) for 4 h. Detergent was removed with Bio-Beads (Bio-Rad) overnight and further separation on a Superdex 200 increase column in PBS (Sigma-Aldrich). […]

The target of another experiment is T2, NPC1 (Cricetulus griseus, UniProt Q9JLG3).
T2 construct: CHO-7 cells in the medium are deprived of cholesterol to induce the LDL receptors biosynthesis; endogenous in cells; host or cells: CHO-7 cells
T2 sequence (Q9JLG3 23-1277): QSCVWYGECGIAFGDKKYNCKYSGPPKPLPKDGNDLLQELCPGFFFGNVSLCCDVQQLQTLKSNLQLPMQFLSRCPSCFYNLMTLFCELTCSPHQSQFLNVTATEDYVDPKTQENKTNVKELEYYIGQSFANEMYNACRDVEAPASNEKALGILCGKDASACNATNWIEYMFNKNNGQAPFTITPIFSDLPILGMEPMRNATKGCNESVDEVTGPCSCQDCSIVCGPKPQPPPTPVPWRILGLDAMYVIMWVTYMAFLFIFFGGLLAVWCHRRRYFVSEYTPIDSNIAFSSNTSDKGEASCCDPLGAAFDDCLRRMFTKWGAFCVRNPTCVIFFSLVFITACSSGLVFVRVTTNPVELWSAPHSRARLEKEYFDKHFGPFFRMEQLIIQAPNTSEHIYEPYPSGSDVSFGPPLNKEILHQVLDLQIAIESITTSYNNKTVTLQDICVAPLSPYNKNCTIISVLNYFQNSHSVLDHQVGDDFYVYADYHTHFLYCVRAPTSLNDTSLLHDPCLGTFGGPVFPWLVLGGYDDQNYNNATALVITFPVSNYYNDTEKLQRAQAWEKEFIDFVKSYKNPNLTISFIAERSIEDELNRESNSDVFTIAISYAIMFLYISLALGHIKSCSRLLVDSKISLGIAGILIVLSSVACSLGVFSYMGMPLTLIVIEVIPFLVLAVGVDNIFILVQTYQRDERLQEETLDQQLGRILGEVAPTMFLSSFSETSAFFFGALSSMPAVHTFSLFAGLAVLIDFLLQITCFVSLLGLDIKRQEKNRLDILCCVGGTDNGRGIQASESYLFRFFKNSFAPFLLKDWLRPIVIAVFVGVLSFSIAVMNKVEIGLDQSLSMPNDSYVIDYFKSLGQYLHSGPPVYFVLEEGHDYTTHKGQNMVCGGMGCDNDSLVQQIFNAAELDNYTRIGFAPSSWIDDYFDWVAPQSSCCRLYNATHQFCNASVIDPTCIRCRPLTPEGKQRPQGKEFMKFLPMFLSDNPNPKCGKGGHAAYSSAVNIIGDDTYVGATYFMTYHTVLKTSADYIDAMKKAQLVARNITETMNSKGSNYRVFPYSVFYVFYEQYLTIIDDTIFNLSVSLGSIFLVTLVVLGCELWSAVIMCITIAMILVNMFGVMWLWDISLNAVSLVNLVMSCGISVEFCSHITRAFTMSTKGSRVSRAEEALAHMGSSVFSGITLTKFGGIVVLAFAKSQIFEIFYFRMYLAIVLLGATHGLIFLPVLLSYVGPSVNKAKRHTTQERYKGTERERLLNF
The conditions noted are these: cited from earlier work; for inhibition of P-X cross-linking to NPC1: cultured cells.

Entries after “also recorded” stand apart in the source; their conditions may differ.

Consider `CCC(C)n1ncn(-c2ccc(N3CCN(c4ccc(OCC5COC(Cn6cncn6)(c6ccc(Cl)cc6Cl)O5)cc4)CC3)cc2)c1=O` (stereo not shown) [Itraconazole mixture, itraconazole], for which the “competition with cross-linking of P-X to purified NPC1” value with human NPC1 is “competed”. Besides, at NPC1, the “inhibition of P-X cross-linking to NPC1” value is listed as “inhibited”.
For the compound `CC(=O)N1CCN(c2ccc(OCC3COC(Cn4ccnc4)(c4ccc(Cl)cc4Cl)O3)cc2)CC1` (stereo not shown) [Ketoconazole, ketoconazole], the “inhibition of P-X cross-linking to NPC1” value at NPC1 is “did not block”.
With `C#CCOc1ccc(C(=O)c2ccc(C(=O)OC(C)C(CC)n3ncn(-c4ccc(N5CCN(c6ccc(OCC7COC(Cn8cncn8)(c8ccc(F)cc8F)O7)cc6)CC5)cc4)c3=O)cc2)cc1` (stereo not shown) [P-X], the “cross-linking of P-X to purified NPC1” value in the experiment on human NPC1 (amphipol-reconstituted NPC1 in PBS without detergent) is “can cross-link”; in the experiment with human NPC1 (protein solubilized in digitonin) it was “not when the protein was solubilized in digitonin”. For the same compound, the “cross-linking of P-X to NPC1 in cultured cells” value on NPC1 (added at nanomolar concentration) was “can be cross-linked”.
In the case of `CCC(C)n1ncn(-c2ccc(N3CCN(c4ccc(OCC5COC(Cn6cncn6)(c6ccc(Cl)cc6Cl)O5)cc4)CC3)c(Br)c2)c1=O` (stereo not shown) [I-Br], the “competition with cross-linking of P-X to purified NPC1” value with human NPC1 is “binds to NPC1 in a similar manner to the itraconazole mixture; also recorded: competes”.
